A short description of data set [1]: Rat ocular pharmacokinetics study, Cohort 1: geranylgeranyl acetone concentration in eyes after topical eye drops. The format is in vivo. As to conditions: Sprague-Dawley, 0.25 mg/eye, 8 doses, average of 3 rats.
Data set [2] is described as follows: Intraocular GGA level, topical ocular versus oral systemic administration. It is filed as in vivo. As to conditions: topical ocular composition of 5% GGA versus 200 mg/kg GGA by systemic administration orally.

Read-outs that look alike come from different tables or passages of the source.

In the case of `CC(=O)CC/C=C(\C)CC/C=C(\C)CC/C=C(\C)CCC=C(C)C` [CNS-102, all-trans geranylgeranyl acetone], the concentration at 8 h came out at 2100 ng/g in data set [1] (contralateral eye, contralateral eye concentration (ng/g in Table 7), read-out: 8 h contra AVE) and 8770 ng/g in data set [1] (treated (ipsilateral) eye, treated eye concentration (ng/g in Table 7), read-out: 8 h ispi AVE).
Turning to `CC(=O)CCC=C(C)CC/C=C(\C)CC/C=C(\C)CCC=C(C)C` (mixture of isomers) [GGA, Geranylgeranyl acetone], in data set [2], the “levels of geranylgeranyl acetone achieved intraocularly, topical versus oral” value is “about 5 fold”.
